Results taken from paper PMC3615092, “Identification, Design and Bio-Evaluation of Novel Hsp90 Inhibitors by Ligand-Based Virtual Screening” (PLoS ONE, 2013).

Assays:
[1] = target: T1, Hsp90 (Homo sapiens, UniProt P07900); experiment: ATP hydrolysis inhibition, ADP Hunter Plus (ADP fluorescence) assay; format: biochemical; conditions: by ADP fluorescence assay
T1 construct: The region encoding full-length Hsp90 was subcloned into pET28a; inferred from the pET28a vector and Ni-NTA purification; made in house; host or cells: E. coli
Protocol: The first and last rows of the 96-well plate contained the appropriate concentration of DMSO were used as blank control. ATP was dissolved in the assay buffer to give a stock concentration of 2.5 mM and stored at room temperature. A 10 μL aliquot of ATP solution was added to each well to give a final assay concentration of 1 mM. Before the usage, Hsp90 protein was thawed on ice and suspended in chilled assay buffer to a stock concentration of 0.45 mg/mL, and the solution was kept on ice. […] The plates were shaken for approximately 2 min and incubated for 3 h at 37°C. The Discover RX ADP Hunter^TM Plus Assay kit (Discoverx, Fremont, CA) was used following the manufacturer's instructions. ATPase reactions were carried out after 3 h at 37°C temperature in presence of different concentrations of compounds. ADP generation was measured using Varioskan multimode microplate spectrophotometer (540 nm excitation and 620 nm emission). […] The background reaction rate was measured in a reaction lacking enzyme or substrate and subtracted from the experimental rates.

[2] = system: A549; experiment: Anti-proliferation MTT assay; format: cell-based; conditions: Homo sapiens, A549, 48 h
Protocol: (§1) Cell viabilities were measured by a colorimetric assay using 3-(4, 5-dimethylthiaz-ol-2-yl)-2,5-diphenyltetrazoliumbromide (MTT, Sigma, Ltd.) as described previously. Experiments were carried out in triplicate in a parallel manner for each concentration of target compounds and the results were presented as mean ± SE. Control cells were given only culture media. After incubation for 48 h, absorbance (A) was measured at 570 nm. Survival ratio (%) was calculated using the following equation: survival ratio (%) = (Atreatment/Acontrol) × 100%.

[3] = system: MCF-7; experiment: Anti-proliferation MTT assay; format: cell-based; conditions: Homo sapiens, MCF7, 48 h
Protocol: as §1

[4] = system: MDA-MB-231; experiment: Anti-proliferation MTT assay; format: cell-based; conditions: Homo sapiens, MDA-MB-231, 48 h
Protocol: as §1

[5] = system: HepG2; experiment: Anti-proliferation MTT assay; format: cell-based; conditions: Homo sapiens, HepG2, 48 h
Protocol: as §1

[6] = system: HCT116; experiment: Anti-proliferation MTT assay; format: cell-based; conditions: Homo sapiens, HCT-116, 48 h
Protocol: as §1

[7] = system: SK-BR-3; experiment: Anti-proliferation MTT assay; format: cell-based; conditions: Homo sapiens, SK-BR-3, 48 h
Protocol: as §1

- IC50 [1]: 2.83 µM
- IC50 [2]: 0.83 µM
- IC50 [3]: 2.01 µM
- IC50 [4]: 14.6 µM
- IC50 [5]: 96.6 µM
- IC50 [6]: 3.63 µM
- IC50 [7]: 3.32 µM
Structure (SMILES): COc1ccccc1N1CCN(CC(O)COCCOc2ccc(Br)cc2)CC1 (stereo not shown) [Compound S13]
